{"source": "patent US12048711B2", "about": "“Composition and use thereof in the manufacture of medicament for treating cancer” (priority 2020, dated 2024)", "key": {"[1]": {"test_system": "Liver cancer cell line HepG2", "experiment": "IC50 determination of Apatinib+Sotagliflozin combination on HepG2", "assay_type": "cell-based", "conditions": "Homo sapiens, single agent, cell survival rate after 2 h incubation, read-out: IC50 value on HepG2 cells", "excerpt": "After obtaining the effectiveness of […] in Example 1, the present disclosure further validated another VEGFR-targeting TKI drug, Apatinib. According to the tissue distribution characteristics of VEGFR and SGLT1/2, the targets of Apatinib and Sotagliflozin, the followings cells were selected for experimental verification: liver cancer cell line HepG2; colorectal cancer cell line LoVo, HT29, SW620, SW480; cervical cancer HeLa; ovarian cancer SKOV3; gastric cancer NGC27; cholangiocarcinoma RBE; esophageal cancer KYSE3. After growing to 80% density, the cells were trypsinized, passaged and plated in a 96-well plate with 5000 cells per well. […] After 48 hours, the absorbance at each concentration was detected by the MTT method. […]\nApatinib test group (FIG. 4-b-1): cells were treated by adding Apatinib alone at 6 different concentrations, 0 μM, 5 μM, 10 μM, 20 μM, 30 μM and 40 μM, respectively, to the culture medium, and cell survival rate was measured after 2 h incubation.\nSotagliflozin test group (FIG. 4-b-2): cells were treated by adding Sotagliflozin alone at 7 different concentrations, 0 μM, 20 μM, 30 μM, 40 μM, 60 μM, 80 μM and 100 μM respectively, to the culture medium, and cell survival rate was measured after 2 h incubation. […]"}, "[2]": {"test_system": "liver cancer cell line HepG2; colorectal cancer cell line LoVo, HT29, SW620, SW480", "experiment": "MTT cell growth inhibition, Apatinib alone and with Sotagliflozin", "assay_type": "cell-based", "conditions": "Apatinib alone 5-30 μM, 48 hours, FIG. 4-a-1 to 4-a-5", "excerpt": "After obtaining the effectiveness of […] in Example 1, the present disclosure further validated another VEGFR-targeting TKI drug, Apatinib. According to the tissue distribution characteristics of VEGFR and SGLT1/2, the targets of Apatinib and Sotagliflozin, the followings cells were selected for experimental verification: liver cancer cell line HepG2; colorectal cancer cell line LoVo, HT29, SW620, SW480; cervical cancer HeLa; ovarian cancer SKOV3; gastric cancer NGC27; cholangiocarcinoma RBE; esophageal cancer KYSE3. After growing to 80% density, the cells were trypsinized, passaged and plated in a 96-well plate with 5000 cells per well. After 24 hours, the medium was replaced with a medium containing the corresponding concentration of Apatinib, Sotagliflozin, or the combination of Apatinib and Sotagliflozin. After 48 hours, the absorbance at each concentration was detected by the MTT method. The experiment included the following groups: Control group: cells were cultured in normal culture medium without drug added. […] The cell growth inhibition rate is calculated by dividing the absorbance value at each concentration by the absorbance value of the control group. […] In the figure, the concentration of Apatinib is taken as the abscissa and the cell growth inhibition rate is taken as the ordinate."}, "lung cancer A549 cells [3]": {"test_system": "lung cancer A549 cells", "experiment": "A549 xenograft tumor treatment trial in nude mice", "assay_type": "in vivo, Balbc nude mice", "conditions": "for Average tumor volume: in mm³ (unit assumed)", "protocol": "After growing to the logarithmic phase, A549 cells were collected and resuspended in serum-free DMEM medium to 5×10^7 cells per ml. Each mouse was inoculated with 100 μl of 5×10^6 cells, and the tumor size was measured 19 days later. Mice were grouped according to the tumor size, and the average tumor size in each group was the same. Mice were administered after grouping. […] The dosage of Gefitinib was 100 mg per kilogram according to the reported dose for the treatment of A549 xenografts in previous studies. The two drugs were administered by gavage, consistent with the current oral mode in clinical use. The dosing cycle was once every two days. The tumor size was measured every two days. After 40 days of administration, the test was ended, and the tumor was removed and weighed."}, "lung cancer A549 cells [4]": {"test_system": "lung cancer A549 cells", "experiment": "Trypan blue staining of A549 cells treated with Gefitinib in sugar-free and sugar-containing medium", "assay_type": "cell-based", "conditions": "20 μM Gefitinib, 48 hours", "protocol": "[…]. A549 cells were grown to 80% density, passed, resuspended in a normal medium (25 mM glucose) to a concentration of 4×10^5 cells per ml, and plated in a 24-well plate with 1 ml per well. After 24 hours, the medium was changed to sugar-free medium (0 mM glucose) and normal medium, respectively, and added with Gefitinib for treating the cell. After 48 hours, the medium was discarded, and 1 ml of 1×PBS was added to wash once, and 1 ml of 1×Trypan Blue was added to each well for staining for 10 minutes. Then, the trypan blue staining solution was aspirated, and the plate was washed three times by adding 1 ml of 1×PBS, and photographed under a light microscope. […] […]. […] According to the background section, cancer cells mainly rely on the SGLT family of proteins to absorb sugar. Therefore, the present disclosure relates use of a composition comprising dual inhibitor Sotagliflozin of SGLT1 and SGLT2, the two most important members of the SGLT family highly expressed in cancer cells, and a tyrosine kinase inhibitor in the manufacture of a medicament for treating cancer.\n. Based on the previous findings illustrated in FIG. 1, Sotagliflozin was purchased from Selleck Chemicals for growth inhibition test of cancer cell in vitro. […] Therefore, the concentration of Sotagliflozin used in the subsequent compositions of this experiment were lower than 80 μM to avoid affecting normal cells."}, "[5]": {"test_system": "liver cancer HepG2 cells, colorectal cancer LoVo, HT29, DLD1, SW480, and HCT116 cells", "experiment": "Growth inhibition by Lenvatinib alone and with Sotagliflozin in a variety of cell lines", "assay_type": "cell-based", "conditions": "addition of Sotagliflozin at a safe dose; FIG. 5", "excerpt": "Therefore, the effect of the combination in the safe concentration range of Sotagliflozin is better than the effect of each single agent. It is worth mentioning that the ability of Sotagliflozin in the combination to enhance the efficacy of VEGFR-targeting TKI drugs is not limited to a single drug of Apatinib."}, "[6]": {"test_system": "Lung cancer cell line A549", "experiment": "IC50 determination of EGFR inhibitor + Sotagliflozin combination on A549", "assay_type": "cell-based", "conditions": "Homo sapiens, single agent, cell survival rate after 1 h incubation, read-out: IC50 value on A549 cells", "protocol": "After growing to 80% density, the cells were trypsinized, passaged and plated in a 96-well plate with 5000 cells per well. After 24 hours, the medium was replaced with a medium containing the corresponding concentration of drug. After 48 hours, the absorbance at each concentration was detected by the MTT method."}, "[7]": {"test_system": "normal human umbilical cord epithelial cells", "experiment": "Determination of the safe concentration of Sotagliflozin on normal cells", "assay_type": "cell-based", "protocol": "The killing effect of Gefitinib on lung cancer A549 cells cultured in sugar-free medium and sugar-containing medium 48 hours after treating A549 cells with 20 μM Gefitinib, trypan blue staining was used to distinguish live cells from dead cells which were stained blue by trypan blue. Based on the previous findings illustrated in FIG. 1, Sotagliflozin was purchased from Selleck Chemicals for growth inhibition test of cancer cell in vitro. […] Therefore, the concentration of Sotagliflozin used in the subsequent compositions of this experiment were lower than 80 μM to avoid affecting normal cells."}, "[8]": {"conditions": "A549 tumor-bearing mice, gavage once every two days, 40 days, Sotagliflozin 30 mg/kg, Gefitinib 100 mg/kg"}}}
{"smiles": "N#CC1(c2ccc(NC(=O)c3cccnc3NCc3ccncc3)cc2)CCCC1", "note": "[Apatinib]", "values": [{"measurement": "IC50", "setting": "[1]", "result": 46, "unit": "µM"}, {"measurement": "inhibitory effect on tumor cells (cell growth inhibition rate)", "setting": "[2]", "result": "limited"}]}
{"smiles": "COc1cc2ncnc(Nc3ccc(F)c(Cl)c3)c2cc1OCCCN1CCOCC1", "note": "[Gefitinib]", "values": [{"measurement": "Tumor volume ratio of each group to the control group", "setting": "lung cancer A549 cells [3]; mouse, in vivo", "result": 0.4881}, {"measurement": "effectiveness evaluation", "setting": "lung cancer A549 cells [3]; mouse, in vivo", "result": "ineffective"}, {"measurement": "Average tumor volume", "setting": "lung cancer A549 cells [3]; mouse, in vivo", "result": 504.8}, {"measurement": "trypan blue staining (dead cells stained blue)", "setting": "lung cancer A549 cells [4]; normal medium (25 mM glucose)", "result": "almost no blue coloration"}, {"measurement": "trypan blue staining (dead cells stained blue)", "setting": "lung cancer A549 cells [4]; sugar-free medium (0 mM glucose)", "result": "almost all colored blue, indicating dead cells"}]}
{"smiles": "COc1cc2nccc(Oc3ccc(NC(=O)NC4CC4)c(Cl)c3)c2cc1C(N)=O", "note": "[Lenvatinib]", "values": [{"measurement": "effect of adding Sotagliflozin on inhibitory effect of Lenvatinib", "setting": "[5]", "result": "enhanced the inhibitory effect"}]}
{"smiles": "CCOc1ccc(Cc2cc([C@@H]3O[C@H](SC)[C@@H](O)[C@H](O)[C@H]3O)ccc2Cl)cc1", "note": "[Sotagliflozin]", "values": [{"measurement": "IC50", "setting": "[1]", "result": 116, "unit": "µM"}, {"measurement": "IC50", "setting": "[6]", "result": 73, "unit": "µM"}, {"measurement": "inhibition of tumor growth (in words)", "setting": "lung cancer A549 cells [3]; A549 tumor-bearing mice, FIG. 7-a to 7-c", "result": "can inhibit tumor growth"}, {"measurement": "Tumor growth inhibition rate", "setting": "lung cancer A549 cells [3]; [8]", "result": 58.4, "unit": "%"}, {"measurement": "Tumor volume ratio of each group to the control group", "setting": "lung cancer A549 cells [3]; [8]", "result": 0.416}, {"measurement": "Average tumor volume", "setting": "lung cancer A549 cells [3]; [8]", "result": 430.3}, {"measurement": "effectiveness evaluation", "setting": "lung cancer A549 cells [3]; effective if tumor growth inhibition rate greater than 60% and p value less than 0.05", "result": "ineffective"}, {"measurement": "concentration mainly exhibiting cell growth inhibition effect", "setting": "[7]", "result": "lower than 80 μM"}, {"measurement": "concentration producing great cytotoxicity", "setting": "[7]", "result": "higher than 80 μM"}]}
